Test results from patent US6699834B1, “Method for treating cancer” (University of Maryland Biotechnology Institute, priority 1997, dated 2004).

Columns and labels:
HIV-1 = details: for HIV in vitro Inhibition: inhibition of HIV-1 replication in vitro (HIV-1 strains and HIV-1 primary isolates)
Source text: To prepare HIV infected cells for the in vitro assay of hCG preparations and β-hCG peptides and derivatives, primary PBMCs, macrophages, and CD4^+ T cells isolated from peripheral blood and the H9 human T cell line, were acutely or chronically infected with 8 different HIV-1 strains: 4 cell line adapted viruses, namely the macrophage tropic Ba-L strain (Gartner et al., 1986, Science 233:215-219) and the CD4^+ T cell tropic MN, RF, and IIIB strains (10^5 TCID50/ml) (Popovic et al., 1984, Science […]; Gallo et al.; 1984, Science 224:500-503); 2 isolates, Ju1083 and G3, from Nigerian AIDS patients passed once in a CD4^+ T cell line (Sub-T1); and 2 primary (“clinical”) isolates from AIDS patients from Trinidad which were never passed in any cell line and were used at a titer of 7.5×10^4TCID50/ml. In all experiments; HIV1 (10^5 TCID50/ml) was added to the cells(10^6 cells/ml) for a 2 hour incubation after which the virus infected cells were washed with 10 ml phosphate buffered saline (PBS) three times to eliminate extra cellular virus. The test inhibitor, i.e. the hCG or β-hCG peptide preparation was then added and the cells were incubated with the test inhibiter for 9 to 10 days with serial sampling. Cultures were assayed for p24 antigen on days 3 to 10.
Peptides of the α- and β-subunits (0.05 to 50 nmoles/ml), native α chain preparation, and various crude preparations of the native hCG heterodimer (0.01 to 1,000 IU) and the native β-hCG subunit (100 to 1,000 μg) were tested for effects on HIV-1 replication in acutely infected cells-by measuring change in viral antigen levels in response to the above noted preparations (FIGS. 4A-D and Table 3).
The fractions were then tested for anti-HIV, anti-KS and pro-hematopoietic activities in vitro. To assay for inhibition of HIV-1 replication in vitro, the HIV-1 […] viral strain was used to infect PBMCs and PM-1 cells (derived from the HUT-78 T-cell lymphoma cell line) at 10^3 TCID50/ml as described in detail herein.

[1] = test system: HIV RNA and protein expression; test: HIV RNA and protein expression in HIV-1 transgenic mice; assay type: in vivo; details: for inhibition of HIV RNA and protein expression: inhibition of HIV RNA and protein expression in HIV-1 transgenic mice; for HIV-1 gene / protein expression in transgenic mice (in words): pups dosed via mother's milk
Source text: (§1) The HIV-1 transgenic mice used for this study contain 7.4 kb of foreign DNA, including 5.1 kb of the HIV-1 proviral genome deleted in the gag and pol genes and 2.3 kb of vector (Dickie et al., 1991, Virology 185:109-119). […] In addition, these mice develop severe hyperkeratotic skin lesions with marked expression of gp 120 and nef genes (Kopp et al., 1993, AIDS Res. Hum. Retroviruses 9:267-275; Vasli et al., 1994, AIDS Res. Hum. Retroviruses 10:1241-1250).
Heterozygous transgenic mothers were treated with the hCG preparation subcutaneously twice weekly. Pups received hCG via the mother's milk.
Gene expression was assayed in total RNA extracted from the skin of Tg26 mice with RNAzol. One microgram of RNA was reverse transcribed into cDNA using random hexamer primers and […] reverse transcriptase (Life Technologies, MD) in a final volume of 30 μl. One tenth of the cDNA reactions were used for PCR amplification of various HIV gene sequences (env, tat, rev, nef and vif). In addition, glyceraldehyde 3-phosphate dehydrogenase (GAPHD) mRNA was amplified for each sample for normalization. Following 25 cycles of amplification, 10% of the PCR product was resolved by electrophoresis through 2% agarose gels and processed for Southern hybridization using FITC-labeled oligonucleotide probes complimentary to internal sequences of the amplicons. Detection was performed by chemiluminescence (Amersham) and relative mRNA levels determined by densitometry after normalization with GAPDH mRNA levels.
(§2) Finally, certain fractions were tested for their ability to increase survival, promote weight gain and reduce HIV-1 gene expression in HIV-1 transgenic mice as described herein.

KS Y-1 and KS-SLK cells = test: Kaposi's Sarcoma clonogenic assay in cultured cells; assay type: cell-based, human; details: for inhibition of KS cell growth in clonogenic assays (in words): KS Y-1 and KS SLK; for KS in vitro: inhibition of Kaposi's Sarcoma cell growth in vitro in cultured cells
Protocol: Briefly, the KS Y-1 cells were obtained from mononuclear cells isolated from pleural effusion of an AIDS patient with KS in the lungs. After the depletion of T lymphocytes, monocytes/macrophages and fibroblasts using monoclonal antibodies against CD2, CD3, CD4, CD8, CD10 and CD14 membrane antigens and baby rabbit complement, the cells were cultured in the absence of exogenous growth factors to select for transformed cells. […] Clonogenic assays were performed by seeding the KS Y-1 or KS-SLK cells in methylcellulose (0.8%, v/v), incubating the cells for 10 days in the presence or absence of the hCC, β-hCG or β-hCG peptide preparations and then counting the number of well-formed colonies of triplicate wells formed after seeding with 5×10^4 cells.
To assay for activity against Kaposi's sarcoma cell growth in vitro, the clonogenic assay described herein was used with the KS Y-1 and KS-SLK cultured Kaposi's Sarcoma cell lines,.

[2] = test system: Kaposi's Sarcoma induced in mice; test: Kaposi's Sarcoma tumors induced in mice by KS Y-1 cells; assay type: in vivo; details: for KS in vivo: inhibition of Kaposi's Sarcoma induced in mice; for effect on KS tumors in mice (in words): mouse, in vivo
Protocol: The effects of the peptides on KS tumor cells were also evaluated in vivo in the KS mouse model. To induce KS tumors in the mice, 1×10^6/ml KS Y-1 cells in 50 μl PBS or saline were injected subcutaneously into immunodeficient mice (beige-XID-BNX mice). […] Methods for detection of apoptosis (from tissue biopsies) were used, as described in Lunardi-Iskandar et al.(1995, Nature 375:64-68). Briefly, the samples were stained in situ for the presence of cells with DNA fragmentation. Tissue slides from formalin-fixed tumors were treated with terminal deoxynucleotide transferase for extension of DNA ends (hydroxyl 3′) and incorporation of digoxigenin-11-dUTP according to the manufacturer's instructions (Oncor, Gaithersburg, Md.). Anti-digoxigenin antibody conjugated with the enzyme peroxidase allowed detection of apoptotic cells, which stain brown, whereas viable cells stain blue.
Certain fractions were tested for activity in reducing Kaposi's Sarcoma lesions in the Kaposi's Sarcoma mouse model as described herein. In this assay, starting one week after injection of the KS Y-1 cells to induce Kaposi's sarcoma formation, the mice were injected subcutaneously with 100 IU hCG. […] After one week of the week of treatment with the hCG fractions, the KS lesions were examined for cell apoptosis and regression as described herein.
Certain fractions of the APL™ hCG and early pregnancy urine were assayed for their ability to elicit apoptosis in Kaposi's Sarcoma lesions induced by injection of KS Y-1 cells in mice (n=3 mice for each treatment). The mice were administered 100 μl subcutaneously of the particular fraction each day for one week.

[3] = test system: hematopoietic progenitor cells; test: Hematopoietic progenitor clonogenic assays (CFU-GEMM, BFU-e, CFU-GM); assay type: cell-based, human; details: for Pro-hematopoiesis in vitro Enhancement: relative increase of hematopoietic colony cell number, hCG preparations 200 IU/ml, subunits and peptides 100 μg/ml
Protocol: The effect of hCG preparations and peptides was assayed on hematopoietic progenitor cells in vitro: Hematopoietic progenitor cells (2×10^5 cell/ml) were isolated from normal bone marrow and cord blood and seeded in methylcellulose. […] The hCG preparations were administered at 200 IU/ml and the β- and α-subunits and peptides were administered at 100 μg/ml. The native commercial preparation of hCG (APL™, Wyeth Ayerst) was pre-tested for anti-HIV and anti-KS activities. Aggregates containing more than 50 cells after 10 days of culture were counted as colonies.

HIV-1 transgenic mice = test: Survival, growth and weight of HIV-1 transgenic mouse pups; assay type: in vivo; details: HIV-1 transgenic pups
Protocol: as §1, §2
HIV-I transgenic pups administered hCG and hCG-related preparations for the first 5 days after birth through the mothers milk were monitored for survival at 10 days after birth.

lung cancer cells = test: Clonogenic assay, lung cancer cells; assay type: cell-based; details: compared to PBS alone
Protocol: The hCG preparations, fractions of the early pregnancy urine and hCG APL™ SUPERDEX™ 200 fractionations (described herein), and certain β-hCG peptides were tested on prostate, lung, breast, and kidney cancer cells in vitro, and on prostate tumors in nude mice. […] The preparations fractions and peptides were also assayed using a clonogenic assay in which cells were seeded in methylcellulose in the presence or absence of test substance and then colonies were counted after a certain period of time. Cells were also examined for apoptosis by confocal microscopy.

Substance | inhibition of HIV-1 infection/replication in vitro (in words) (HIV-1) | HIV in vitro Inhibition (HIV-1) | inhibition of HIV RNA and protein expression [1] | HIV-1 gene / protein expression in transgenic mice (in words) [1] | inhibition of KS cell growth in clonogenic assays (in words) (KS Y-1 and KS-SLK cells) | KS in vitro (KS Y-1 and KS-SLK cells) | KS in vivo [2] | effect on KS tumors in mice (in words) [2] | promotion of hematopoiesis (in words) [3] | Pro-hematopoiesis in vitro Enhancement [3] | weight gain / growth retardation and cachexia (HIV-1 transgenic mice) | colony formation (lung cancer cells)
3. 45-57: β-hCG amino acids 45-57 (SEQ ID NO:6) (LQGVLPALPQVVC) | inhibit HIV-1 replication in vitro | ++ (“++” represents greater than 40% effect) | ++ (“++” represents greater than 40% effect) | considerable inhibition | strongest anti-tumor effects | ++ (“++” represents greater than 40% effect) | ++ (“++” represents greater than 40% effect) | extensive cell death | directly promoted | ++ (“++” represents greater than 40% effect) | higher weight gain than untreated mice | inhibited colony formation
6. 45-57::109-119: β-hCG 45-57 linked at the C-terminus to the N-terminus of 109-119 (SEQ ID NO:30) (LQGVLPALPQVVCTCDDPRFQDSS) | inhibit HIV-1 replication in vitro | ++ (“++” represents greater than 40% effect) | ++ (“++” represents greater than 40% effect) |  | strongest anti-tumor effects | ++ (“++” represents greater than 40% effect) | ++ (“++” represents greater than 40% effect) | significant anti-KS activity | directly promoted | ++ (“++” represents greater than 40% effect) |  | inhibited colony formation
32. 48-56: β-hCG amino acids 48-56 (SEQ ID NO:35) (VLPALPQVV) | inhibited HIV-1 replication | + (“+” represents greater than 15% effect) | + (“+” represents greater than 15% effect) | elicited inhibition |  | + (“+” represents greater than 15% effect) | + (“+” represents greater than 15% effect) | some anti-KS activity | pro-hematopoietic effect | + (“+” represents greater than 15% effect) |  | 
